Test results: PMC2396520, “Antibody Complementarity-Determining Regions (CDRs) Can Display Differential Antimicrobial, Antiviral and Antitumor Activities” (PLoS ONE, 2008)
pEC50: −log10 of the molar value. Where a SMILES comes first, the peptide text is derived from it.

Columns and labels:
Type in all cases: cell-based
R5 HIV-1 = settings: R5, 2 h, 10
Experimental: Briefly, for endogenous HIV-1 replication assays peripheral blood mononuclear cells (PBMCs) from R5 HIV-1-infected patients characterized by high viral RNA titers in plasma and cell-associated viremia were cultured in 96-well plates at 1×10^6 cells/mL in RPMI 1640 medium with 10% fetal calf serum (FCS) and 20 U/mL of rIL-2. Exogenous rIL-2 was added every 3–4 days. Cultures were treated with synthetic mAb CDRs and mAb C7/pc42 H1 asd at 10 µg/mL during the time of culture. Virus production on days 5 and 10 was assayed in the supernatants using ultrasensitive Alliance® HIV-1 p24 ELISA kit (Perkin Elmer); p24 Ag in the supernatants of untreated cultures corresponded to 100% of viral production. For exogenous infection assays, PHA-stimulated PBMCs obtained from healthy individuals were infected with BaL (R5) or IIIB (X4) HIV-1 strain at a median tissue culture infective dose (TCID50) of 500 TCID50/ml. After 2 h of adsorption, the cells were washed, suspended at 2×10^5 cells/ml in medium and cultured in 96-well cultures plates. At time zero of infection, synthetic peptides were added to the cultures at 10 µg/ml and were maintained throughout the experiment. All assays were performed in triplicate. Virus production was assayed 10 days after infection in the supernatants of HIV-1-infected PBMCs by p24 assay.

Candida albicans UP10 = settings: for Anti-Candida activity (%) at 100 µg/mL: C7/pc42 H2 alanine-substituted derivatives, 37°C, 6 h, CFU assay, triplicate; for pEC50: UP10, 6 h; for EC50asd/EC50H2: anti-Candida EC50 of the derivative relative to C7/pc42 H2
Experimental: The alanine substituted derivatives (asd), defined according to the position held by the alanine-substituted aminoacid, were tested in the same biological assays to critically establish the functional relevance of each residue [5]. In vitro microbicidal activity of CDR peptides and selected asd against C. albicans UP 10 (clinical isolate from the fungi collection of the University of Parma) and C. albicans NCPF 3153 (National Collection of Pathogenic Fungi, Bristol, UK) were used for the in vitro experiments.
The microbicidal activity of synthetic CDRs against C. albicans strains was preliminarily evaluated by testing 100 µg/mL of each synthetic peptide by colony forming unit (CFU) assays as previously described [5]. Briefly, 10 µL of a distilled water suspension containing ∼5×10^4/mL germinating yeast cells were added to 90 µL of distilled water containing the synthetic peptide to be tested. Yeast suspensions were incubated at 37°C for 6 h. After incubation, the cell suspensions were plated on Sabouraud dextrose agar, incubated at 30°C and observed for CFU determination after 48–72 hours. Each assay was carried out in triplicate. […] EC50 was calculated by nonlinear regression analysis using Graph Pad Prism 4.01 software, San Diego, CA, USA.

[1] = system: B16F10-Nex2 murine melanoma cells; settings: 12 h
Experimental: Each peptide was tested in triplicate. After 12 h, the cytotoxic activities of the peptides were determined by measuring cell viability by Trypan Blue exclusion.

SMILES: CSCC[C@H](NC(=O)[C@H](Cc1ccc(O)cc1)NC(=O)[C@H](Cc1ccc(O)cc1)NC(=O)[C@H](C)N)C(=O)N[C@@H](Cc1c[nH]cn1)C(=O)O [G1A] (H-AYYMH-OH; N-terminus and C-terminus assumed)
- % inhibitory activity (10 µg/ml) (R5 HIV-1): 0%

SMILES: CSCC[C@H](NC(=O)[C@H](Cc1ccc(O)cc1)NC(=O)[C@H](Cc1ccc(O)cc1)NC(=O)CN)C(=O)N[C@@H](C)C(=O)O [H5A] (H-GYYMA-OH; N-terminus and C-terminus assumed)
- % inhibitory activity (10 µg/ml) (R5 HIV-1): 0%

SMILES: C[C@H](NC(=O)[C@H](Cc1ccc(O)cc1)NC(=O)[C@H](Cc1ccc(O)cc1)NC(=O)CN)C(=O)N[C@@H](Cc1c[nH]cn1)C(=O)O [M4A] (H-GYYAH-OH; N-terminus and C-terminus assumed)
- % inhibitory activity (10 µg/ml) (R5 HIV-1): 41%

SMILES: CC[C@H](C)[C@H](NC(=O)[C@@H](N)Cc1ccc(O)cc1)C(=O)N[C@@H](CO)C(=O)N[C@@H](CS)C(=O)N[C@@H](Cc1ccc(O)cc1)C(=O)N[C@@H](CC(N)=O)C(=O)NCC(=O)N[C@@H](C)C(=O)N[C@@H](C)C(=O)N[C@@H](CO)C(=O)N[C@@H](Cc1ccc(O)cc1)C(=O)N[C@@H](CC(N)=O)C(=O)N[C@@H](CCC(N)=O)C(=O)N[C@@H](CCCCN)C(=O)N[C@@H](Cc1ccccc1)C(=O)N[C@@H](CCCCN)C(=O)O [T9A] (H-YISCYNGAASYNQKFK-OH; N-terminus and C-terminus assumed)
- Anti-Candida activity (%) at 100 µg/mL (Candida albicans UP10): 100.00%
- pEC50 (Candida albicans UP10): 5.42
- EC50asd/EC50H2 (Candida albicans UP10): 0.91
- pEC50 [1]: 4.22

SMILES: CC[C@H](C)[C@H](NC(=O)[C@H](C)N)C(=O)N[C@@H](CO)C(=O)N[C@@H](CS)C(=O)N[C@@H](Cc1ccc(O)cc1)C(=O)N[C@@H](CC(N)=O)C(=O)NCC(=O)N[C@@H](C)C(=O)N[C@H](C(=O)N[C@@H](CO)C(=O)N[C@@H](Cc1ccc(O)cc1)C(=O)N[C@@H](CC(N)=O)C(=O)N[C@@H](CCC(N)=O)C(=O)N[C@@H](CCCCN)C(=O)N[C@@H](Cc1ccccc1)C(=O)N[C@@H](CCCCN)C(=O)O)[C@@H](C)O [Y1A] (H-AISCYNGATSYNQKFK-OH; N-terminus and C-terminus assumed)
- Anti-Candida activity (%) at 100 µg/mL (Candida albicans UP10): 99.37%
- pEC50 (Candida albicans UP10): 5.21
- EC50asd/EC50H2 (Candida albicans UP10): 1.48
- pEC50 [1]: 4.15

SMILES: CSCC[C@H](NC(=O)[C@H](Cc1ccc(O)cc1)NC(=O)[C@H](C)NC(=O)CN)C(=O)N[C@@H](Cc1c[nH]cn1)C(=O)O [Y2A] (H-GAYMH-OH; N-terminus and C-terminus assumed)
- % inhibitory activity (10 µg/ml) (R5 HIV-1): 61%

SMILES: CSCC[C@H](NC(=O)[C@H](C)NC(=O)[C@H](Cc1ccc(O)cc1)NC(=O)CN)C(=O)N[C@@H](Cc1c[nH]cn1)C(=O)O [Y3A] (H-GYAMH-OH; N-terminus and C-terminus assumed)
- % inhibitory activity (10 µg/ml) (R5 HIV-1): 90%

SMILES: CC[C@H](C)[C@H](NC(=O)[C@@H](N)Cc1ccc(O)cc1)C(=O)N[C@@H](CO)C(=O)N[C@@H](CS)C(=O)N[C@@H](C)C(=O)N[C@@H](CC(N)=O)C(=O)NCC(=O)N[C@@H](C)C(=O)N[C@H](C(=O)N[C@@H](CO)C(=O)N[C@@H](Cc1ccc(O)cc1)C(=O)N[C@@H](CC(N)=O)C(=O)N[C@@H](CCC(N)=O)C(=O)N[C@@H](CCCCN)C(=O)N[C@@H](Cc1ccccc1)C(=O)N[C@@H](CCCCN)C(=O)O)[C@@H](C)O [Y5A] (H-YISCANGATSYNQKFK-OH; N-terminus and C-terminus assumed)
- Anti-Candida activity (%) at 100 µg/mL (Candida albicans UP10): 98.10%
- pEC50 (Candida albicans UP10): 4.54
- EC50asd/EC50H2 (Candida albicans UP10): 6.81
- pEC50 [1]: 4.13

SMILES: CC[C@H](C)[C@H](NC(=O)[C@@H](N)Cc1ccc(O)cc1)C(=O)N[C@@H](CO)C(=O)N[C@@H](CS)C(=O)N[C@@H](Cc1ccc(O)cc1)C(=O)N[C@@H](CC(N)=O)C(=O)NCC(=O)N[C@@H](C)C(=O)N[C@H](C(=O)N[C@@H](CO)C(=O)N[C@@H](C)C(=O)N[C@@H](CC(N)=O)C(=O)N[C@@H](CCC(N)=O)C(=O)N[C@@H](CCCCN)C(=O)N[C@@H](Cc1ccccc1)C(=O)N[C@@H](CCCCN)C(=O)O)[C@@H](C)O [Y11A] (H-YISCYNGATSANQKFK-OH; N-terminus and C-terminus assumed)
- Anti-Candida activity (%) at 100 µg/mL (Candida albicans UP10): 55.70%
- pEC50 (Candida albicans UP10): 4.32
- EC50asd/EC50H2 (Candida albicans UP10): 11.35
- pEC50 [1]: 3.95
